Results as given in patent EP0071892A2, “Phospholipid derivatives, process for preparation thereof and pharmaceutical composition of the same” (priority 1981, dated 1983).
Read-outs that look alike come from different tables or passages of the source.

Columns and labels:
Fibrosarcoma Meth A [1] = experiment: Test Method A: intradermally inoculated Meth A tumor in mice, intratumoral injection of test compound, tumor growth inhibition; assay type: in vivo, BALB/c mice; settings: 100 µg/mouse intratumorally once daily from Day 1 to Day 4 postimplant; for Mean of two diameters of the growing tumor: 1 x 10^5 Meth A cells intradermally; for responders at 0.1 mg / inhibition in vivo at 0.1 mg: Meth-A; for responders at 0.1 mg: read-out: Ratio of tumor free mice [Number of tumor free mice/ Number of mice used as a group] (converted); for inhibition in vivo at 0.1 mg: Mus musculus, read-out: Tumor growth inhibition (%) [(1-T/c)x100]
Procedure: Groups of six female BALB/c mice, aged 12 weeks and weighing 19 - 21 g were used.
Fib,rosarcoma Meth A (hereinafter referred to as Meth A) was successively transferred every 7 days into BALB/c mice by intraperitoneal inoculation of the ascites cells thereof and the Meth A in the ascites cells as harvested 6 days after the inoculation was used as tumor cells.
Each of the BALB/c mice was inoculated intradermally with 1 x 10^5 Meth A cells in 0.05 ml Hanks solution.
Test compound was dissolved in 0.5% methylcellulose saline solution, and was intratumorally injected to each of the mice in doses of 100 µg/mouse once daily from Day 1 to Day 4 postimplant.
The control group was given with a vehicle alone in the same way.
The antitumor effectiveness of the test compound was estimated by tumor growth inhibition (1-T/C). • T: Mean diameter of the growing tumor of the medicated group • C: Mean diameter of the growing tumor of the control group

Fibrosarcoma Meth A [2] = experiment: Test Method B: intrapleurally inoculated Meth A tumor in mice, injection into pleural cavity, mean survival time; assay type: in vivo, BALB/c mice; design: dose or concentration left out as unconfirmed; settings: for Anti-tumor activity (%) *d: comparison of mean survival time of medicated group (T) and control group (C), into pleural cavity three times; for Mean survival time: into pleural cavity three times (before 14 days, after 1 hour and after 3 days of tumor implantation), 5 x 10^5 Meth A cells intrapleurally
Procedure: Groups of eight female BALB/c mice, aged 8-9 weeks and weighing 18.0-22.5 g were used.
Fibrosarcoma Meth A (hereinafter referred to as Meth A) was successively transferred every 7 days into BALB/c mice by intraperitoneal inoculation of the ascites cells thereof and the Meth A in the ascites cells as harvested 6 or 7 days after the inoculation was used as tumor cells.
Each of the BALB/c mice was inoculated intrapleurally with 5 x 10^5 Meth A cells in 0.1 ml Hanks solution.
Test compound was dissolved in phosphate buffer saline solution, and was injected into pleural cavity to each of the mice in doses of 100 pg/0.05 ml/mouse three times, i.e. before 14 days, after 1 hour and after 3 days of tumor implantation.
The antitumor activity of the test compound was estimated by comparing mean survival time of the two groups. • T : Mean survival time of the medicated group • C : Mean survival time of the control group

| Molecule | Mean of two diameters of the growing tumor (Fibrosarcoma Meth A [1]; Day 14) [mm] | Ratio of tumor free mice [Number of tumor free mice/ Number of mice used as a group] (Fibrosarcoma Meth A [1]; Day 21) | Mean of two diameters of the growing tumor (Fibrosarcoma Meth A [1]; Day 21) [mm] | responders at 0.1 mg (Fibrosarcoma Meth A [1]; Day 14) [%] | inhibition in vivo at 0.1 mg (Fibrosarcoma Meth A [1]; Day 14) [%] | inhibition in vivo at 0.1 mg (Fibrosarcoma Meth A [1]; Day 21) [%] | Anti-tumor activity (%) *d (Fibrosarcoma Meth A [2]) [%] | Mean survival time (Fibrosarcoma Meth A [2]) [days] |
| --- | --- | --- | --- | --- | --- | --- | --- | --- |
| CCCCCCCCCCCCCCCCCCOCC(COP(=O)(O)OCCN1CCN(C)CC1)OCC (racemic) [3-(1), (rac)-l-O-Octadecyl-2-0-ethyl-glycerol-3-[2-(4-methyl-l-piperazinyl)ethyl]phosphate] | 0 | 6/6 | 0 | 100 | 100 | 100 | 342 | 20.5 |
| CCCCCCCCCCCCCCCCCCOCC(COP(=O)([O-])OCC[n+]1ccccc1)NC(=O)OCC (racemic) [10-(6), (rac)-1-0-Octadecyl-2-ethoxycarbonylamino-1,3-propanediol-3-[2-(1-pyridinio)ethyl]phosphate] | – | – | – | – | – | – | <400 | 24.0 |
| CCCCCCCCCCCCCCCCCCOCC(COP(=O)([O-])OCC[n+]1ccccc1)NC(=O)NC (racemic) [11-(2), (rac)-1-0-Octadecyl-2-(N'-methylureido)-1,3-propanediol-3-[2-(l-pyridinio)ethyl]phosphate] | – | – | – | – | – | – | 350 | 21.0 |
| CCCCCCCCCCCCCCCCCCOCC(COP(=O)([O-])OCC[N+](C)(C)C)OC (racemic) [*e, reference compound] | – | – | – | – | – | – | 242 | 14.5 |
| CCCCCCCCCCCCCCCCCCOCC(COP(=O)([O-])OCC[n+]1ccccc1)OC (racemic) [Example 1, (rac)-l-O-octadecyl-2-0-methyl-glycerol-3-[2-(1-pyridinio)ethyl]phosphate] | 0 | 6/6 | 0 | 100 | 100 | 100 | 367 | 22.0 |
| CCCCCCCCCCCCCCCCCCOCCCOP(=O)([O-])OCC[n+]1ccccc1 [3-(29), (rac)-1-0-Octadecyl-1,3-propanediol-3-[2-(1-pyridinio)-ethyl]phosphate] | – | – | – | – | – | – | 264 | 18.5 |
| (rac)-1-O-Octadecyl-2-0-methyl-glycerol-3-[2-(N-methyl-4-morpholino)ethyl]phosphate [3-(15)] | – | – | – | – | – | – | 433 | 26.0 |
